Reference: ChEMBL document CHEMBL3727364, “Resorcinol n-aryl amide compounds, for use as pyruvate dehydrogenase kinase inhibitors” (2015)

These molecules were tested against [Pyruvate dehydrogenase (acetyl-transferring)] kinase isozyme 1, mitochondrial (Homo sapiens, UniProt Q15118) (assay: Binding affinity to pyruvate dehydrogenase kinase 1 (unknown origin) incubated for 90 mins by VER-00160364 probe based fluorescence polarization assay).
Sequence of [Pyruvate dehydrogenase (acetyl-transferring)] kinase isozyme 1, mitochondrial (Q15118 whole entry): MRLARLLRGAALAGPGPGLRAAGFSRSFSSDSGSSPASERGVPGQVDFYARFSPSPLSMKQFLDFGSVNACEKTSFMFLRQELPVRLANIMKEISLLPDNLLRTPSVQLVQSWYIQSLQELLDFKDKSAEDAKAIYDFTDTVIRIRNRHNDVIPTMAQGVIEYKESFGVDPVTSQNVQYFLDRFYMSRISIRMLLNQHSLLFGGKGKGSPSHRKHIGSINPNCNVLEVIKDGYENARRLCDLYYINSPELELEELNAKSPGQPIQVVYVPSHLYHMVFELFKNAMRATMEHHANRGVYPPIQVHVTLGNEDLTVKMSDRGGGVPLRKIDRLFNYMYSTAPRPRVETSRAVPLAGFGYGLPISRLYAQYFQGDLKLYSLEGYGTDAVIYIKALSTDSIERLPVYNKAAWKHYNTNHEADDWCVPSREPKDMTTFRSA

| Structure (SMILES) | IC50 |
| --- | --- |
| O=C(c1ccc(N(Cc2cccnc2)C(=O)c2ccc(O)cc2O)cc1)N1CCC(O)CC1 | 100 nM |
| Cc1cc(S(=O)(=O)N2CCN(C)CC2)cnc1-c1ccc(N(Cc2ccccc2)C(=O)c2ccc(O)cc2O)cc1 | 10 nM |
| CN(Cc1ccnc2ccccc12)C(=O)c1ccc(N(Cc2ccccc2)C(=O)c2ccc(O)cc2O)cc1 | 100 nM |
| CN(Cc1ccc2ncccc2c1)C(=O)c1ccc(N(Cc2cccnc2)C(=O)c2ccc(O)cc2O)cc1 | 100 nM |
| CC(c1ccccc1)N(C(=O)c1ccc(O)cc1O)c1ccc(C(=O)N(C)C)cc1 (centres undefined) | 1000 nM |
| CN(Cc1cccc2cccnc12)C(=O)c1ccc(N(Cc2cccnc2)C(=O)c2ccc(O)cc2O)cc1 | 100 nM |
| CCCc1cncnc1-c1ccc(N(Cc2ccccc2)C(=O)c2ccc(O)cc2O)cc1 | 1000 nM |
| Cc1cc(S(=O)(=O)NCc2ccccn2)cnc1-c1ccc(N(Cc2ccccc2)C(=O)c2ccc(O)cc2O)cc1 | 10 nM |
| Cc1c(-c2ccc(N(Cc3ccccc3)C(=O)c3ccc(O)cc3O)cc2)ccc2c1NC(=O)C2=O | 1000 nM |
| CN(Cc1cccc2cnccc12)C(=O)c1ccc(N(Cc2cccnc2)C(=O)c2ccc(O)cc2O)cc1 | 100 nM |
| COc1ccc(CN(C)C(=O)c2ccc(N(Cc3ccccc3)C(=O)c3cc(Cl)c(O)cc3O)cc2)cc1 | 100 nM |
| O=C(c1ccc(N(Cc2ccccc2)C(=O)c2ccc(O)cc2O)cc1)N1CCC(O)CC1 | 100 nM |
| Cc1nc(C(F)(F)F)nc(-c2ccc(N(Cc3ccccc3)C(=O)c3ccc(O)cc3O)cc2)c1C | 1000 nM |
| CNC(=O)c1ccc(N(Cc2ccccc2)C(=O)c2ccc(O)cc2O)cc1 | 1000 nM |
| CNS(=O)(=O)c1cnc(-c2ccc(N(Cc3ccccc3)C(=O)c3ccc(O)cc3O)cc2)c(C)c1 | 100 nM |
| O=C(c1ccc(O)cc1O)N(Cc1ccccc1)c1ccc(-c2nc(Cl)nc3[nH]ccc23)cc1 | 1000 nM |
| CN(Cc1ccc(OC(F)(F)F)cc1)C(=O)c1ccc(N(Cc2cccnc2)C(=O)c2ccc(O)cc2O)cc1 | 100 nM |
| O=C(c1ccc(O)cc1O)N(Cc1ccccc1)c1ccc(-c2nc(Cl)nc3c2COCC3)cc1 | 1000 nM |
| CN(Cc1ccc2ccccc2c1)C(=O)c1ccc(N(Cc2ccccc2)C(=O)c2ccc(O)cc2O)cc1 | 10000 nM |
| Cc1cc(-c2ccc(N(Cc3ccccc3)C(=O)c3ccc(O)cc3O)cc2)nnc1Cl | 10000 nM |
| O=C(NCc1ccc(Cl)cc1)c1ccc(N(Cc2cccnc2)C(=O)c2ccc(O)cc2O)cc1 | 100 nM |
| C[C@@H](c1ccccc1)N(C(=O)c1cc(Cl)c(O)cc1O)c1ccc(C(=O)N(C)C)cc1 | 1000 nM |
| Cc1nc(-c2ccc(N(Cc3ccccc3)C(=O)c3ccc(O)cc3O)cc2)c2ccccc2n1 | 1000 nM |

| Structure (SMILES) | IC50 |
| --- | --- |
| Cc1cc(S(=O)(=O)N2CCC(F)(F)CC2)cnc1-c1ccc(N(Cc2ccccc2)C(=O)c2ccc(O)cc2O)cc1 | 1000 nM |
| Cc1cc(S(=O)(=O)NCc2ccncc2)cnc1-c1ccc(N(Cc2cccnc2)C(=O)c2ccc(O)cc2O)cc1 | 10 nM |
| CN(Cc1cccc2cnccc12)C(=O)c1ccc(N(Cc2ccccc2)C(=O)c2ccc(O)cc2O)cc1 | 100 nM |
| Cc1cc(S(=O)(=O)N2CCCCC2)cnc1-c1ccc(N(Cc2ccccc2)C(=O)c2ccc(O)cc2O)cc1 | 100 nM |
| Cc1cc(S(=O)(=O)NCCN(C)C)cnc1-c1ccc(N(Cc2ccccc2)C(=O)c2ccc(O)cc2O)cc1 | 100 nM |
| Cc1cccnc1-c1ccc(N(Cc2ccccc2)C(=O)c2ccc(O)cc2O)cc1 | 1000 nM |
| CN(Cc1cccc(C(F)(F)F)c1)C(=O)c1ccc(N(Cc2ccccc2)C(=O)c2ccc(O)cc2O)cc1 | 10000 nM |
| Cc1cc(S(=O)(=O)NCc2cccnc2)cnc1-c1ccc(N(Cc2ccccc2)C(=O)c2ccc(O)cc2O)cc1 | 10 nM |
| O=C(NC1CC1)c1ccc(N(Cc2ccccc2)C(=O)c2ccc(O)cc2O)cc1 | 1000 nM |
| CN(C)C(=O)c1ccc(N(Cc2cccnc2)C(=O)c2cc(Cl)c(O)cc2O)cc1 | 10 nM |
| CNc1nccc(-c2ccc(N(Cc3ccccc3)C(=O)c3ccc(O)cc3O)cc2)n1 | 10000 nM |
| CN(Cc1cccc2cccnc12)C(=O)c1ccc(N(Cc2ccccc2)C(=O)c2ccc(O)cc2O)cc1 | 100 nM |
| COCCN(C)S(=O)(=O)c1cnc(-c2ccc(N(Cc3ccccc3)C(=O)c3ccc(O)cc3O)cc2)c(C)c1 | 100 nM |
| CN(C)C(=O)c1ccc(N(Cc2ccccc2)C(=O)c2ccc(O)cc2O)cc1 | 100 nM |
| Cc1cccnc1-c1ccc(N(Cc2ccccc2)C(=O)c2cc(Cl)c(O)cc2O)cc1 | 1000 nM |
| COc1ccc(CNC(=O)c2ccc(N(Cc3cccnc3)C(=O)c3ccc(O)cc3O)cc2)cc1 | 100 nM |
| CN(Cc1cccs1)C(=O)c1ccc(N(Cc2ccccc2)C(=O)c2ccc(O)cc2O)cc1 | 100 nM |
| O=C(c1ccc(O)cc1O)N(Cc1ccccc1)c1ccccc1 | 1000 nM |
| CN(Cc1ccc2nccnc2c1)C(=O)c1ccc(N(Cc2cccnc2)C(=O)c2ccc(O)cc2O)cc1 | 10 nM |
| CN(C)C(=O)c1ccc(N(Cc2ccc(F)cc2)C(=O)c2cc(Cl)c(O)cc2O)cc1 | 100 nM |
| CC(=O)N1CCN(S(=O)(=O)c2cnc(-c3ccc(N(Cc4ccccc4)C(=O)c4ccc(O)cc4O)cc3)c(C)c2)CC1 | 10 nM |
| CCOC(=O)c1nc(C)nc(-c2ccc(N(Cc3ccccc3)C(=O)c3ccc(O)cc3O)cc2)c1C | 10000 nM |
| CC(c1ccccc1)N(C(=O)c1cc(Cl)c(O)cc1O)c1ccc(C(=O)N(C)C)cc1 (centres undefined) | 100 nM |

| Structure (SMILES) | IC50 |
| --- | --- |
| CN(Cc1ccc2ncccc2c1)C(=O)c1ccc(N(Cc2ccccc2)C(=O)c2ccc(O)cc2O)cc1 | 100 nM |
| COc1ccc(CN(C)C(=O)c2ccc(N(Cc3cccnc3)C(=O)c3cc(Cl)c(O)cc3O)cc2)cc1 | 10 nM |
| CN(Cc1ccc2ccccc2n1)C(=O)c1ccc(N(Cc2cccnc2)C(=O)c2ccc(O)cc2O)cc1 | 100 nM |
| Cc1cc(N)ncc1-c1ccc(N(Cc2ccccc2)C(=O)c2ccc(O)cc2O)cc1 | 1000 nM |
| CN(Cc1ccc(C#N)cc1)C(=O)c1ccc(N(Cc2cccnc2)C(=O)c2ccc(O)cc2O)cc1 | 100 nM |
| CN(C)C(=O)c1ccc(N(Cc2cccnc2)C(=O)c2ccc(O)cc2O)cc1 | 100 nM |
| COc1cnc(Cl)nc1-c1ccc(N(Cc2ccccc2)C(=O)c2ccc(O)cc2O)cc1 | 100 nM |
| Cc1cc(Cl)nnc1-c1ccc(N(Cc2ccccc2)C(=O)c2ccc(O)cc2O)cc1 | 100 nM |
| Cc1cc(S(=O)(=O)NCCCC(N)=O)cnc1-c1ccc(N(Cc2ccccc2)C(=O)c2ccc(O)cc2O)cc1 | 10 nM |
| Cc1cnc(NC(C)C)nc1-c1ccc(N(Cc2ccccc2)C(=O)c2ccc(O)cc2O)cc1 | 10000 nM |
| Cn1ccnc1-c1ccc(N(Cc2ccccc2)C(=O)c2ccc(O)cc2O)cc1 | 1000 nM |
| COc1ccc(CN(C)C(=O)c2ccc(N(Cc3cccnc3)C(=O)c3ccc(O)cc3O)cc2)cc1 | 10 nM |
| CN(Cc1cccc2ncccc12)C(=O)c1ccc(N(Cc2cccnc2)C(=O)c2ccc(O)cc2O)cc1 | 100 nM |
| COc1ccc(CN(C)C(=O)c2ccc(N(Cc3cccc(C)c3)C(=O)c3cc(Cl)c(O)cc3O)cc2)cc1 | 1000 nM |
| C[C@H](c1ccccc1)N(C(=O)c1cc(Cl)c(O)cc1O)c1ccc(C(=O)N(C)C)cc1 | 1000 nM |
| CN(C)C(=O)c1ccc(N(Cc2cccc(O)c2)C(=O)c2cc(Cl)c(O)cc2O)cc1 | 100 nM |
| CN(Cc1cccc2ncccc12)C(=O)c1ccc(N(Cc2ccccc2)C(=O)c2ccc(O)cc2O)cc1 | 100 nM |
| Cc1ccc(CN(C(=O)c2cc(Cl)c(O)cc2O)c2ccc(C(=O)N(C)C)cc2)cc1 | 100 nM |
| O=C(NC1CC1)c1ccc(N(Cc2cccnc2)C(=O)c2ccc(O)cc2O)cc1 | 1000 nM |
| Cc1nc(N)ccc1-c1ccc(N(Cc2ccccc2)C(=O)c2ccc(O)cc2O)cc1 | 1000 nM |
| CNC(=O)c1ccc(N(Cc2cccnc2)C(=O)c2ccc(O)cc2O)cc1 | 1000 nM |
| CN(Cc1ccc2nccnc2c1)C(=O)c1ccc(N(Cc2ccccc2)C(=O)c2ccc(O)cc2O)cc1 | 10 nM |
| CN(Cc1ccc2ccccc2n1)C(=O)c1ccc(N(Cc2ccccc2)C(=O)c2ccc(O)cc2O)cc1 | 100 nM |

| Structure (SMILES) | IC50 |
| --- | --- |
| CN(C)C(=O)c1ccc(N(Cc2cccc(C#N)c2)C(=O)c2cc(Cl)c(O)cc2O)cc1 | 100 nM |
| COc1ccc(CNC(=O)c2ccc(N(Cc3ccccc3)C(=O)c3ccc(O)cc3O)cc2)cc1 | 1000 nM |
| CN(C)CCN(C)C(=O)c1ccc(N(Cc2ccccc2)C(=O)c2ccc(O)cc2O)cc1 | 1000 nM |
| CN(Cc1ccnc2ccccc12)C(=O)c1ccc(N(Cc2cccnc2)C(=O)c2ccc(O)cc2O)cc1 | 100 nM |
| Cc1ccnnc1-c1ccc(N(Cc2ccccc2)C(=O)c2ccc(O)cc2O)cc1 | 100 nM |
| CN(Cc1cccc2ccccc12)C(=O)c1ccc(N(Cc2cccnc2)C(=O)c2ccc(O)cc2O)cc1 | 10 nM |
| CN(C)CCN(C)C(=O)c1ccc(N(Cc2cccnc2)C(=O)c2ccc(O)cc2O)cc1 | 1000 nM |
| CN(Cc1cccs1)C(=O)c1ccc(N(Cc2cccnc2)C(=O)c2ccc(O)cc2O)cc1 | 100 nM |
| CCc1cnc(C)nc1-c1ccc(N(Cc2ccccc2)C(=O)c2ccc(O)cc2O)cc1 | 100 nM |
| Cc1cnc(Cl)nc1-c1ccc(N(Cc2ccccc2)C(=O)c2ccc(O)cc2O)cc1 | 10 nM |
| CC(=O)NCCNS(=O)(=O)c1cnc(-c2ccc(N(Cc3ccccc3)C(=O)c3ccc(O)cc3O)cc2)c(C)c1 | 10 nM |
| O=C(c1ccc(O)cc1O)N(Cc1ccccc1)c1ccc(-c2ncnc3ccsc23)cc1 | 10000 nM |
| COc1ccc(CN(C)C(=O)c2ccc(N(Cc3ccccc3)C(=O)c3ccc(O)cc3O)cc2)cc1 | 100 nM |
| CN(Cc1cccc2ccccc12)C(=O)c1ccc(N(Cc2ccccc2)C(=O)c2ccc(O)cc2O)cc1 | 1000 nM |
| Cc1cc(S(=O)(=O)NCc2ccccc2)cnc1-c1ccc(N(Cc2ccccc2)C(=O)c2ccc(O)cc2O)cc1 | 100 nM |
| Cc1cc(S(=O)(=O)N2CCOCC2)cnc1-c1ccc(N(Cc2ccccc2)C(=O)c2ccc(O)cc2O)cc1 | 100 nM |
| CN(C)C(=O)c1ccc(N(Cc2ccccc2)C(=O)c2cc(Cl)c(O)cc2O)cc1 | 10 nM |
| CN(C)C(=O)c1ccc(N(Cc2ccc(C(F)(F)F)cc2)C(=O)c2cc(Cl)c(O)cc2O)cc1 | 100 nM |
| O=C(c1ccc(O)cc1O)N(Cc1ccccc1)c1ccc(-c2nc(Cl)nc3ccsc23)cc1 | 10000 nM |
| Cc1cc(S(=O)(=O)NCc2cccs2)cnc1-c1ccc(N(Cc2ccccc2)C(=O)c2ccc(O)cc2O)cc1 | 10 nM |
